# Laboratory results taken from patent US7691901B2, “Carotenoid analogs or derivatives for the inhibition and amelioration of inflammation” (Cardax Pharmaceuticals Inc., priority 2004, dated 2010).
# Assay type: physicochemical
# Procedure: Determination of aqueous solubility/dispersibility. 30.13 mg of 3 was added to 1 mL of USP-purified water. The sample was rotated for 2 hours, then centrifuged for 5 minutes. […] A 125-μL aliquot of the solution was then diluted to 25 mL. The sample was analyzed by UV/Vis spectroscopy at 436 nm, and the absorbance was compared to a standard curve compiled from 4 standards of known concentration.
# The sample was rotated for 2 hours, then centrifuged for 5 minutes. […] A 125-μL aliquot of the solution was then diluted to 25 mL. The sample was analyzed by UV/Vis spectroscopy at 411 nm, and the absorbance was compared to a standard curve compiled from 4 standards of known concentration.
smiles,measurement,value
"CC1=C(/C=C/C(C)=C/C=C/C(C)=C/C=C/C=C(C)/C=C/C=C(C)/C=C/C2=C(C)C(=O)C(OC(=O)CCC(=O)O)CC2(C)C)C(C)(C)CC(OC(=O)CCC(=O)O)C1=O (stereo not shown) [Cardax, disodium disuccinate astaxanthin]",water dispersibility,8.64 mg/mL
